# Test results from patent US12195482B1 (Arcus Biosciences, Inc., priority 2022, dated 2025).
# Target: T1, p-AXL (Homo sapiens, UniProt P30530)
# T1 construct: expressed in transfected cells; host or cells: HEK293T
# T1 sequence (P30530 26-894): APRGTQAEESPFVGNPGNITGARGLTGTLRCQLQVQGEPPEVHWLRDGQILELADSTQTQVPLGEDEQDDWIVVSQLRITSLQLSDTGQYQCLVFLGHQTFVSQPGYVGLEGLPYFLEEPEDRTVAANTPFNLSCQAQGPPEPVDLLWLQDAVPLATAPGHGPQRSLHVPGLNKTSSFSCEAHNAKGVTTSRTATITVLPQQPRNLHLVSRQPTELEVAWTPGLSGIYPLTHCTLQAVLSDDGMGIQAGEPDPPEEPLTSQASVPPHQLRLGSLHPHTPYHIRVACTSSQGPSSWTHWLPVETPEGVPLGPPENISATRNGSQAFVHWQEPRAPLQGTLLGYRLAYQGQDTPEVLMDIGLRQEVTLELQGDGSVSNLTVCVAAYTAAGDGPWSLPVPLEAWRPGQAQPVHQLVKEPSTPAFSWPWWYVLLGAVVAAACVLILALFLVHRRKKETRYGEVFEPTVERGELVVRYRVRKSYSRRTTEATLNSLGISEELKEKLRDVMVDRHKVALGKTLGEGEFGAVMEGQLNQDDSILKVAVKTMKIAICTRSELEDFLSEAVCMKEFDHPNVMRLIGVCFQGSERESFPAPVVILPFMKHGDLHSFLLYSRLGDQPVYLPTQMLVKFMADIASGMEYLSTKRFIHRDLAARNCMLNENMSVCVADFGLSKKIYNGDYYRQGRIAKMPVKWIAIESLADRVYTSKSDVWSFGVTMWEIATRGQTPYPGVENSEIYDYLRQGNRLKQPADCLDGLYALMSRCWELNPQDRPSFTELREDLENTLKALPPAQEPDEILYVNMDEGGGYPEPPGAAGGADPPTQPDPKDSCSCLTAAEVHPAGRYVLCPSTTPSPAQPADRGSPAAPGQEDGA
# Test: Axl phosphorylation inhibition ELISA in HEK293T cells transfected with NanoLuc-tagged AXL
# Type: cell-based
# Conditions: 1 h compound incubation, media (OptiMEM)
# Method in brief: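 HEK293T cells transiently transfected one day earlier with NanoLuc-tagged AXL were exposed to 22-point 2-fold compound dilutions for 1 h at 37° C (70,000 cells/well), then lysed. Lysates captured on anti-phospho-tyrosine coated plates for 2 h; bound p-AXL read by NanoLuc luminescence; IC50 from 4-parameter logistic fit.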
row,IC50,Structure (SMILES)
1,< 0.1 µM,"Cc1cnc(-c2ccc(-c3c[nH]c4ncc(-c5ccc6c(c5)CC[C@@](C)(N5CCC[C@H]5C)CC6)cc34)cc2)c(C)n1 [Example 57, 3,5-Dimethyl-2-(4-{5-[(7S)-7-methyl-7-[(2R)-2-methylpyrrolidin-1-yl]-6,7,8,9-tetrahydro-5H-benzo[7]annulen-2-yl]-1H-pyrrolo[2,3-b]pyridin-3-yl}phenyl)pyrazine]"
2,< 0.1 µM,"N#Cc1cccnc1-c1ccc(-c2n[nH]c3ncc(-c4ccc5c(c4)CC[C@@H](N4C6COCC4C6)CC5)cc23)cc1 [Example 52, 2-(4-{5-[(7S)-7-{3-Oxa-6-azabicyclo[3.1.1]heptan-6-yl}-6,7,8,9-tetrahydro-5H-benzo[7]annulen-2-yl]-1H-pyrazolo[3,4-b]pyridin-3-yl}phenyl)pyridine-3-carbonitrile]"

# Target: T2, Axl (Homo sapiens, UniProt P30530)
# T2 sequence (P30530 26-894): T1 sequence (P30530 26-894)
# Test: Biochemical potency, HTRF KinEASE-TK kinase assay
# Parameters: purchased Invitrogen
# Conditions: 5 nM AXL, 700 μM ATP
# Method in brief: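 Compounds preincubated 1 h at RT with enzyme in 50 mM HEPES pH 7.4, 10 mM MgCl2, 0.01% BSA, 1 mM DTT; reactions then ran 2 h at RT with 5 nM AXL or 1 nM TYRO3/MER, 800 nM TK substrate-biotin, 700 μM ATP, 1% DMSO. HTRF 665/620 ratio read; percent activity calculated.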
row,Structure (SMILES),IC50
1,"Fc1cccnc1-c1ccc(-c2c[nH]c3ncc(-c4ccc5c(c4)CC[C@@H](N4C6COCC4C6)CC5)cc23)cc1 [Example 42, 6-[(7S)-2-{3-[4-(3-Fluoropyridin-2-yl)phenyl]-1H-pyrrolo[2,3-b]pyridin-5-yl}-6,7,8,9-tetrahydro-5H-benzo[7]annulen-7-yl]-3-oxa-6-azabicyclo[3.1.1]heptane]",< 0.1 µM
2,"Cc1cnc(-c2ccc(-c3c[nH]c4ncc(-c5ccc6c(c5)CC[C@@](C)(N5CCC[C@H]5C)CC6)cc34)cc2)c(C)n1 [Example 57, 3,5-Dimethyl-2-(4-{5-[(7S)-7-methyl-7-[(2R)-2-methylpyrrolidin-1-yl]-6,7,8,9-tetrahydro-5H-benzo[7]annulen-2-yl]-1H-pyrrolo[2,3-b]pyridin-3-yl}phenyl)pyrazine]",< 0.1 µM
3,"N#Cc1cccnc1-c1ccc(-c2n[nH]c3ncc(-c4ccc5c(c4)CC[C@@H](N4C6COCC4C6)CC5)cc23)cc1 [Example 52, 2-(4-{5-[(7S)-7-{3-Oxa-6-azabicyclo[3.1.1]heptan-6-yl}-6,7,8,9-tetrahydro-5H-benzo[7]annulen-2-yl]-1H-pyrazolo[3,4-b]pyridin-3-yl}phenyl)pyridine-3-carbonitrile]",< 0.1 µM
4,"COc1cccc(-c2ccc(-c3n[nH]c4ncc(-c5ccc6c(c5)CC[C@@H](N5C7COCC5C7)CC6)cc34)cc2)n1 [Example 162, 6-[(7S)-2-{3-[4-(6-Methoxypyridin-2-yl)phenyl]-2H-pyrazolo[3,4-b]pyridin-5-yl}-6,7,8,9-tetrahydro-5H-benzo[7]annulen-7-yl]-3-oxa-6-azabicyclo[3.1.1]heptane]",< 0.1 µM
5,"Cc1nncn1-c1ccc(-c2n[nH]c3ncc(-c4ccc5c(c4)CC[C@@H](N4C6COCC4C6)CC5)cc23)cc1 [Example 11, 6-[(7S)-2-{3-[4-(3-Methyl-4H-1,2,4-triazol-4-yl)phenyl]-1H-pyrazolo[3,4-b]pyridin-5-yl}-6,7,8,9-tetrahydro-5H-benzo[7]annulen-7-yl]-3-oxa-6-azabicyclo[3.1.1]heptane]",< 0.1 µM

# The next lines start with the values.
row,IC50,Structure (SMILES)
1,< 0.1 µM,"Fc1cc(-c2c[nH]c3ncc(-c4ccc5c(c4)CC[C@@H](N4C6COCC4C6)CC5)cc23)ccc1-c1ccccn1 [Example 40, 6-[(7S)-2-{3-[3-Fluoro-4-(pyridin-2-yl)phenyl]-1H-pyrrolo[2,3-b]pyridin-5-yl}-6,7,8,9-tetrahydro-5H-benzo[7]annulen-7-yl]-3-oxa-6-azabicyclo[3.1.1]heptane]"
2,< 0.1 µM,"COc1cc(-c2c[nH]c3ncc(-c4ccc5c(c4)CC[C@@H](N4C6COCC4C6)CC5)cc23)ccc1-c1ccccn1 [Example 161, 6-[(7S)-2-{3-[3-Methoxy-4-(pyridin-2-yl)phenyl]-1H-pyrrolo[2,3-b]pyridin-5-yl}-6,7,8,9-tetrahydro-5H-benzo[7]annulen-7-yl]-3-oxa-6-azabicyclo[3.1.1]heptane]"
3,< 0.1 µM,"Clc1cccnc1-c1ccc(-c2c[nH]c3ncc(-c4ccc5c(c4)CC[C@@H](N4C6COCC4C6)CC5)cc23)cc1 [Example 43, 6-[(7S)-2-{3-[4-(3-Chloropyridin-2-yl)phenyl]-1H-pyrrolo[2,3-b]pyridin-5-yl}-6,7,8,9-tetrahydro-5H-benzo[7]annulen-7-yl]-3-oxa-6-azabicyclo[3.1.1]heptane]"
4,< 0.1 µM,"COc1cc(-c2n[nH]c3ncc(-c4ccc5c(c4)CC[C@@H](N4C6COCC4C6)CC5)cc23)ccc1-c1ccccn1 [Example 160, 6-[(7S)-2-{3-[3-Methoxy-4-(pyridin-2-yl)phenyl]-2H-pyrazolo[3,4-b]pyridin-5-yl}-6,7,8,9-tetrahydro-5H-benzo[7]annulen-7-yl]-3-oxa-6-azabicyclo[3.1.1]heptane]"
5,< 0.1 µM,"c1cncc(-c2ccc(-c3n[nH]c4ncc(-c5ccc6c(c5)CC[C@@H](N5C7COCC5C7)CC6)cc34)cc2)c1 [Example 157, 6-[(7S)-2-{3-[4-(Pyridin-3-yl)phenyl]-2H-pyrazolo[3,4-b]pyridin-5-yl}-6,7,8,9-tetrahydro-5H-benzo[7]annulen-7-yl]-3-oxa-6-azabicyclo[3.1.1]heptane]"
